Where a SMILES comes first, the peptide text is derived from it.
Tests used:
Format in all cases: cell-based
[1] = system: Citrobacter freundii ATCC 8090; experiment: Inhibition zone assay; design: key: --: "-" means that no inhibition has been found
[2] = system: Enterobacter cloacae BE 97; experiment: Inhibition zone assay; design: key: --: "-" means that no inhibition has been found; conditions: I and B 10 ul
[3] = system: Haemophilus influenzae NCTC 8465; experiment: Inhibition zone assay; design: key: --: "-" means that no inhibition has been found; conditions: I 10 ul
[4] = system: Klebsiella aerogenes 1961 E; experiment: Inhibition zone assay; design: key: --: "-" means that no inhibition has been found; conditions: I and B 10 ul, L 5 ug
[5] = system: Salmonella typhimurium ATCC 23565; experiment: Inhibition zone assay; design: key: --: "-" means that no inhibition has been found
[6] = system: Salmonella typhimurium NCTC 74; experiment: Inhibition zone assay; design: key: --: "-" means that no inhibition has been found; conditions: I and B 10 ul
[7] = system: Salmonella infantis 81/257; experiment: Inhibition zone assay; design: key: --: "-" means that no inhibition has been found; conditions: I and B 10 ul
[8] = system: Serratia fonticola ATCC 298449; experiment: Inhibition zone assay; conditions: I and B 10 ul, L 5 ug
[9] = system: Clostridium difficile Bart 1924; experiment: Inhibition zone assay; design: key: --: "-" means that no inhibition has been found; conditions: I 10 ul
Procedure: (§1) Whole lymph or purified components, resuspended in PBS to a final volume equal to the starting material (heated lymph), was applied in 3 mm wells on agar plates seeded with the test organisms. Antibacterial activity was determined by measuring the growth-inhibition zones (in mm).

[10] = system: Corynebacterium michiganense pv. michiganense NCPPB 1573; experiment: Inhibition zone assay; design: key: --: "-" means that no inhibition has been found
Procedure: as §1

Shigella flexneri CP 87 = experiment: Inhibition zone assay; design: key: --: "-" means that no inhibition has been found; conditions: I 10 ul
Procedure: as §1

[11] = system: Shigella flexneri NCTC 9950; experiment: Inhibition zone assay; design: key: --: "-" means that no inhibition has been found; conditions: I and B 10 ul
Procedure: as §1

Shigella sonnei CQ26 = experiment: Inhibition zone assay; design: key: --: "-" means that no inhibition has been found; conditions: I and B 10 ul
Procedure: as §1

[12] = system: Clostridium perfringens NCTC 6785; design: key: --: "-" means that no inhibition has been found; conditions: I 10 ul
[13] = system: Listeria monocytogenes B5; experiment: Inhibition zone assay; design: key: --: "-" means that no inhibition has been found; conditions: L 5 ug
[14] = system: Rhodococcus equi ATCC 25729; experiment: Inhibition zone assay; design: key: --: "-" means that no inhibition has been found; conditions: I and B 10 ul, L 5 ug
[15] = system: Staphylococcus aureus STA 1; experiment: Inhibition zone assay; design: key: --: "-" means that no inhibition has been found; conditions: I 10 ul
[16] = system: Agrobacterium tumefaciens DSM 3129; experiment: Inhibition zone assay; conditions: I and B 10 ul, L 5 ug
[17] = system: Agrobacterium tumefaciens ATCC 143; experiment: Inhibition zone assay; design: key: --: "-" means that no inhibition has been found
[18] = system: Agrobacterium rhizogenes ATCC 11325; experiment: Inhibition zone assay; design: key: --: "-" means that no inhibition has been found; conditions: I and B 10 ul, L 5 ug
[19] = system: Erwinia carotovora var. atroseptica NCPPB 549; experiment: Inhibition zone assay; design: key: --: "-" means that no inhibition has been found; conditions: I and B 10 ul, L 5 ug
[20] = system: Erwinia carotovora var. carotovora NCPPB 312; experiment: Inhibition zone assay; design: key: --: "-" means that no inhibition has been found
[21] = system: Pseudomonas syringae pv. syringae ATCC 19310; experiment: Inhibition zone assay; design: key: --: "-" means that no inhibition has been found
[22] = system: Rhizobium leguminosarum 720; experiment: Inhibition zone assay; design: key: --: "-" means that no inhibition has been found
[23] = system: Xanthomonas campestris pv. campestris A 902; experiment: Inhibition zone assay; design: key: --: "-" means that no inhibition has been found; conditions: * synthetic ApidIa and heattreated immune lymph instead of Bee6 and native immune lymph
[24] = system: Xanthomonas campestris pv. vesicatoria XV82-4; experiment: Inhibition zone assay; design: key: --: "-" means that no inhibition has been found; conditions: I and B 10 ul, L 5 ug
[25] = system: Alcalienes denitrificans ATCC 15173; experiment: Inhibition zone assay; design: key: --: "-" means that no inhibition has been found
[26] = system: Arthrobacter sp. NRRL B-3724; experiment: Inhibition zone assay
[27] = system: Bacillus subtilis NRRL B-237; experiment: Inhibition zone assay; conditions: I and B 10 ul, L 5 ug
[28] = system: Flavobacterium capsulatum ATCC 14666; experiment: Inhibition zone assay; design: key: --: "-" means that no inhibition has been found
[29] = system: Pseudomonas aureofaciens CCEB 518; experiment: Inhibition zone assay; design: key: --: "-" means that no inhibition has been found; conditions: I and B 10 ul, L 5 ug
[30] = system: Pseudomonas fluorescens ATCC 13525; experiment: Inhibition zone assay; design: key: --: "-" means that no inhibition has been found
[31] = system: Pseudomonas acidovorans CuETM 83-109; experiment: Inhibition zone assay; design: key: --: "-" means that no inhibition has been found; conditions: I and B 10 ul, L 5 ug
[32] = system: Rhodococcus terrae ATCC 25594; experiment: Inhibition zone assay; design: key: --: "-" means that no inhibition has been found; conditions: I and B 10 ul
[33] = system: Serratia liquefaciens DSM 30125; experiment: Inhibition zone assay; design: key: --: "-" means that no inhibition has been found; conditions: I 10 ul, L 5 ug
Clostridia = system: Clostridia

In the case of `CC[C@H](C)[C@H](NC(=O)[C@H](CCCCN)NC(=O)[C@@H]1CCCN1C(=O)[C@H](CC(N)=O)NC(=O)[C@H](Cc1ccccc1)NC(=O)[C@@H]1CCCN1C(=O)CNC(=O)[C@H](CCC(N)=O)NC(=O)CNC(=O)[C@@H]1CCCN1C(=O)[C@H](Cc1ccccc1)NC(=O)[C@@H](NC(=O)[C@@H]1CCCN1C(=O)[C@H](Cc1ccccc1)NC(=O)[C@@H]1CCCN1C(=O)[C@H](CCCNC(=N)N)NC(=O)[C@H](CCCNC(=N)N)NC(=O)CNC(=O)[C@@H]1CCCN1C(=O)[C@H](CCC(N)=O)NC(=O)[C@@H]1CCCN1C(=O)[C@@H](NC(=O)[C@H](CC(N)=O)NC(=O)[C@@H]1CCCN1C(=O)[C@H](CC(C)C)NC(=O)[C@@H]1CCCN1C(=O)[C@@H](NC(=O)[C@@H](N)Cc1ccc(O)cc1)C(C)C)C(C)C)[C@@H](C)O)C(=O)N[C@@H](CCCCN)C(=O)N[C@@H](Cc1c[nH]c2ccccc12)C(=O)N1CCC[C@H]1C(=O)N[C@@H](CCC(N)=O)C(=O)NCC(=O)N[C@@H](Cc1ccc(O)cc1)C(=O)O` [bee 9] (H-YVPLPNVPQPGRRPFPTFPGQGPFNPKIKWPQGY-OH), the “diameter of growth-inhibition zone” value [1] is reported as “--”, the “diameter of growth-inhibition zone” value [2] is reported as “--” and the “diameter of growth-inhibition zone” value [3] is reported as “--”. The “diameter of growth-inhibition zone” value [4] was “--”, the “diameter of growth-inhibition zone” value [5] was “--” and the “diameter of growth-inhibition zone” value [6] was “--”. For the same molecule, the “diameter of growth-inhibition zone” value [7] was “--”, the “diameter of growth-inhibition zone” value [8] was 9 mm and the “diameter of growth-inhibition zone” value [9] was “--”. The “diameter of growth-inhibition zone” value [10] was “--”, the “diameter of growth-inhibition zone” value (Shigella flexneri CP 87) was “--” and the “diameter of growth-inhibition zone” value [11] was “--”. For the same molecule, the “diameter of growth-inhibition zone” value (Shigella sonnei CQ26) was “--”, the “diameter of growth-inhibition zone” value [12] was “--” and the “diameter of growth-inhibition zone” value [13] was “--”. The “diameter of growth-inhibition zone” value [14] was “--”, the “diameter of growth-inhibition zone” value [15] was “--” and the “diameter of growth-inhibition zone” value [16] was 4 mm. For the same molecule, the “diameter of growth-inhibition zone” value [17] was “--”, the “diameter of growth-inhibition zone” value [18] was “--” and the “diameter of growth-inhibition zone” value [19] was “--”. The “diameter of growth-inhibition zone” value [20] was “--”, the “diameter of growth-inhibition zone” value [21] was “--” and the “diameter of growth-inhibition zone” value [22] was “--”. For the same molecule, the “diameter of growth-inhibition zone” value [23] was “--”, the “diameter of growth-inhibition zone” value [24] was “--” and the “diameter of growth-inhibition zone” value [25] was “--”. The “diameter of growth-inhibition zone” value [26] was 8 mm, the “diameter of growth-inhibition zone” value [27] was 4 mm and the “diameter of growth-inhibition zone” value [28] was “--”. The “diameter of growth-inhibition zone” value [29] was “--”, the “diameter of growth-inhibition zone” value [30] was “--” and the “diameter of growth-inhibition zone” value [31] was “--”. For the same molecule, the “diameter of growth-inhibition zone” value [32] was “--”, the “diameter of growth-inhibition zone” value [33] was “--” and the “susceptibility, in words” value (Clostridia) was “resistant”.

Reference: patent publication US5300629A, “Bactericidal and/or bacteriostatic peptides isolated from hemolymph of honeybees” (Plant Genetic Systems, N.V., priority 1987, dated 1994)
